Experimental data: patent publication US6518301B1, “Estrogen receptor-β ligands” (AstraZeneca AB, priority 1999, dated 2003)
pKd, pKi: −log10 of the molar value. Like-named read-outs stand apart in the source and are kept apart here.

What was measured:
[1] = target: T1, ER-β (Gen Bank Accession #X99101) (Homo sapiens, UniProt Q92731); assay: Estrogen receptor binding, competition with [125I]-estradiol, ER-β
T1 construct: made in house; host or cells: in vitro transcription/translation, TNT T7 Quick-Coupled reticulocyte lysate (Promega Cat.#L1170)
T1 sequence (Q92731 54-530 limits assumed): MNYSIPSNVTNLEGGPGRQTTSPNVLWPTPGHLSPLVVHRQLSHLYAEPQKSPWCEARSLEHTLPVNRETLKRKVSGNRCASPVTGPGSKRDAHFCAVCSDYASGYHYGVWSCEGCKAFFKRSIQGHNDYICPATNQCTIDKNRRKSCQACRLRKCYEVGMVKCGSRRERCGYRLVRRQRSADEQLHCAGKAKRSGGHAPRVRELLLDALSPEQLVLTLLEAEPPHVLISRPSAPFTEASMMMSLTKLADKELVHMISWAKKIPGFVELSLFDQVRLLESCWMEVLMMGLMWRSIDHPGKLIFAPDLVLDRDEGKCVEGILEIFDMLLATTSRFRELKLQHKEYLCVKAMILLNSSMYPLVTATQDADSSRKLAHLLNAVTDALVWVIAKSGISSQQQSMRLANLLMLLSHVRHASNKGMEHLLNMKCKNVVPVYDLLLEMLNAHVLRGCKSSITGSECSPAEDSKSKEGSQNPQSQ
Procedure: (§1) The ability of a compound to bind to ER was measured by its ability to compete for binding with the radio-labeled estrogen.
(§2) Receptor protein was prepared by in vitro transcription and translation of these plasmids using the TNT T7 Quick-Coupled reticulocyte lysate system (Promega Cat.#L1170). […] Programmed lysate was then aliquotted and stored frozen at −80° C.
(§3) Compounds were prepared as 1 mM stocks in DMSO, then diluted in the binding-assay buffer (in mM: 20 HEPES, 150 NaCl, 1 EDTA, 6 monothioglycerol and 10 Na2MoO4; 10% wt/vol glycerol, and pH =7.9) to a series of three-fold concentrated, 20 μL aliquots in a 96-well plate. Receptor aliquots were thawed on ice, and appropriately diluted (see below) in binding assay buffer. Diluted receptor (30 μL/each) was added to each well. […] Plates containing the final assay mixture were mixed on a shaker for 2 min and incubated overnight (˜16 h) at 4° C.
(§4) Receptor-bound and unbound radioligand was separated by filtration over sephadex columns. Columns (45 μL bed volume) were prepared by adding dry column media (Pharmacia Cat#G-25) to 96-well column templates (Millipore MultiScreen Plates Cat#MAHVN4510). Columns were then saturated with 300 μL of binding-assay buffer and stored at 4° C. Prior to use, stored columns were spun for 10 minutes at 2000 RPM, then washed twice with 200 μL of fresh binding buffer. The binding-assay mixtures (50 μL/each) were then applied to the columns, and an additional elution volume of 35 μL was immediately applied to the column. Receptor-bound radioligand was then cluted from the column by centrifugation for 10 minutes at 2000 RPM. A scintillation cocktail (145 μL) was added to the eluted radioligand/receptor complex, and radio-label was measured by liquid scintillation counting.

[2] = target: T2, ER-α (Gen Bank Accession #M12674) (Homo sapiens, UniProt P03372); assay: Estrogen receptor binding, competition with [125I]-estradiol, ER-α
T2 construct: made in house; host or cells: in vitro transcription/translation, TNT T7 Quick-Coupled reticulocyte lysate (Promega Cat.#L1170)
T2 sequence (P03372 1-595): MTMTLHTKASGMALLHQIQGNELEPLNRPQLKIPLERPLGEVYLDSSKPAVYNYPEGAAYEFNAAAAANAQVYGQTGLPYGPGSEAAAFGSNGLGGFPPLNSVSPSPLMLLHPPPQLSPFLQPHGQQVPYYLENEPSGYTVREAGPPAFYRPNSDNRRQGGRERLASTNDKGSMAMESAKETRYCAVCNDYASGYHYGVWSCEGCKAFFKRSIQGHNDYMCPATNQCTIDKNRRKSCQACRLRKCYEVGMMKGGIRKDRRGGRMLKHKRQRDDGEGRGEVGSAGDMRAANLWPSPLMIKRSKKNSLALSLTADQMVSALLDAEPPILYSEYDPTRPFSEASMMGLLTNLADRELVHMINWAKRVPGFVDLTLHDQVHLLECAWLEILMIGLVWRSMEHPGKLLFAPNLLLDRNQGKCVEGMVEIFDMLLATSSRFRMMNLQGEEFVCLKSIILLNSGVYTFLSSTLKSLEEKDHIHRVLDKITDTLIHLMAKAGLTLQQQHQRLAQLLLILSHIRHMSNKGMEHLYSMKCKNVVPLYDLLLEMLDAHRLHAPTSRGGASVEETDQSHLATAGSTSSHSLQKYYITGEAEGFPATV
Procedure: as §1, §2, §3, §4

ER = assay: Scatchard analysis of ligand binding affinity on receptor preparation; details: Scatchard analysis at receptor dilutions giving reported Kis and signal:noise ~10; subtype not specified; read-out: KD for [125I]-estradiol
Procedure: The volume of receptor-programmed reticulocyte lysate to be added to the binding assay was determined independently from two measurements made on each batch of receptor prepared. First, Kis were determined for standard compounds using a series of dilutions of the receptor preparation. Scatchard analysis of ligand binding affinity was performed at the receptor dilutions that produced reported Kis for these compounds and an acceptable signal:noise ratio (˜10).

[3] = competition with 150 pM [125I]-estradiol, receptor-programmed reticulocyte lysate, overnight at 4° C., Cheng-Prushoff from IC50, read-out: ER-β Ki
[4] = competition with 150 pM [125I]-estradiol, receptor-programmed reticulocyte lysate, overnight at 4° C., Cheng-Prushoff from IC50, read-out: ER-α Ki

SMILES | pKi [1, 3] | pKi [2, 4] | pKd (ER) | pKi [1] | pKi [2]
Cc1c(-c2ccc(O)cc2)c(=O)oc2cc(O)ccc12 [Compound No. 28, 3-(4-hydroxyphenyl)-7-hydroxy-4-methylcoumarin] | 7.92 | 6.49 | – | – | –
CC12CCC3c4ccc(O)cc4CCC3C1CC([125I])C2O (stereo not drawn) [[^125I]-estradiol, [^125I]-16α-iodo-3,17β-estradiol] | – | – | 9.00 to 10.00 | – | –
O=c1c(-c2ccc(O)c(Br)c2)coc2cc(O)cc(O)c12 [compound 6, (3-Bromo-4-hydroxyphenyl)-5,7-dihydroxy-4H-1-benzopyran-4-one] | 8.90 | 6.36 | – | – | –
COc1cc(-c2coc3cc(O)cc(O)c3c2=O)ccc1O [compound 9] | 6.84 | < 5.52 | – | – | –
Cc1cc(-c2coc3cc(O)cc(O)c3c2=O)cc(C)c1O [compound 10] | 7.60 | < 5.52 | – | – | –
O=c1c(-c2ccc(F)cc2)coc2cc(O)cc(O)c12 [compound 11] | 7.00 | < 5.52 | – | – | –
O=c1c(-c2ccc3c(c2)OCO3)coc2cc(O)cc(O)c12 [compound 12] | 7.66 | < 5.52 | – | – | –
Nc1ccc(-c2coc3cc(O)cc(O)c3c2=O)cc1 [compound 13] | 8.22 | < 5.52 | – | – | –
O=c1c(-c2ccc3ccccc3c2)coc2cc(O)cc(O)c12 [compound 14] | 6.82 | < 5.52 | – | – | –
O=c1c(-c2cccc(O)c2)coc2cc(O)cc(O)c12 [compound 15] | 7.82 | 6.05 | – | – | –
O=c1c(-c2ccccc2O)coc2cc(O)cc(O)c12 [compound 16] | 6.96 | < 5.52 | – | – | –
O=c1c(-c2ccsc2)coc2cc(O)cc(O)c12 [compound 18] | 7.77 | < 5.52 | – | – | –
O=c1c(-c2ccc3ccccc3n2)coc2cc(O)cc(O)c12 [compound 19] | 6.91 | < 5.52 | – | – | –
O=c1c(-c2ccc(Br)cc2)coc2cc(O)cc(O)c12 [compound 20] | 7.60 | < 5.52 | – | – | –
O=c1c(-c2ccc(Cl)cc2)coc2cc(O)cc(O)c12 [compound 21] | 7.38 | < 5.52 | – | – | –
COc1cc(O)c2c(=O)c(-c3ccc(O)cc3)coc2c1 [compound 22] | – | – | – | 7.30 | < 5.52
O=c1c(-c2ccc(O)cc2)c(C(F)(F)F)oc2cc(O)ccc12 [compound 25] | 8.00 | 6.49 | – | – | –
O=C1c2c(O)cc(O)cc2CCC1c1ccc(O)cc1 (stereo not drawn) [compound 27] | 8.24 | – | – | – | –
CCc1c(-c2ccc(O)cc2)c(=O)oc2cc(O)ccc12 [compound 29] | 8.40 | 7.10 | – | – | –
COc1c(O)cc(O)c2c(=O)c(-c3ccc(O)cc3)coc12 [compound 32] | 7.48 | < 5.52 | – | – | –
O=c1c(-c2ccccc2F)coc2cc(O)cc(O)c12 [compound 33] | 7.30 | < 5.52 | – | – | –
O=c1c(-c2ccccc2)c(-c2ccccc2)oc2cc(O)cc(O)c12 [compound 34] | 8.02 | 7.02 | – | – | –
O=c1c(-c2ccccc2)c(-c2ccccc2)oc2cc(O)ccc12 [compound 35] | 7.72 | 7.30 | – | – | –
O=c1oc2cc(O)ccc2cc1-c1ccc(O)cc1 [compound 38] | 8.31 | 6.66 | – | – | –
O=c1oc2cc(O)cc(O)c2cc1-c1ccc(O)cc1 [compound 39] | 7.10 | < 5.52 | – | – | –
O=c1oc2ccc(O)cc2cc1-c1ccc(O)cc1 [compound 41] | 8.34 | – | – | – | –
Cc1c(-c2ccc(Cl)cc2)c(=O)oc2cc(O)ccc12 [compound 42] | 7.29 | < 5.52 | – | – | –
Cc1c(-c2ccc(O)cc2)c(=O)oc2c(C)c(O)ccc12 [compound 43] | 7.62 | 6.30 | – | – | –

Now from value to molecule, other results behind:

pKi [1, 3] | pKi [2, 4] | SMILES | pKd (ER) | pKi [1] | pKi [2]
9.26 | 7.25 | O=c1c(-c2ccc(O)cc2Cl)coc2cc(O)cc(O)c12 [Compound No. 2] | – | – | –
8.67 | 6.22 | O=c1c(-c2ccc(O)c(O)c2)coc2cc(O)cc(O)c12 [compound 1] | – | – | –
8.92 | 7.21 | Cc1cc(O)ccc1-c1coc2cc(O)cc(O)c2c1=O [compound 3] | – | – | –
9.30 | 7.13 | O=c1c(-c2ccc(O)c(F)c2)coc2cc(O)cc(O)c12 [compound 4] | – | – | –
8.92 | 5.96 | O=c1c(-c2ccc(O)c(Cl)c2)coc2cc(O)cc(O)c12 [compound 5] | – | – | –
8.49 | < 5.52 | C=CCc1cc(-c2coc3cc(O)cc(O)c3c2=O)ccc1O [compound 7] | – | – | –
9.12 | < 5.52 | CCCc1cc(-c2coc3cc(O)cc(O)c3c2=O)ccc1O [compound 8] | – | – | –
8.48 | < 5.52 | O=c1c(-c2cccs2)coc2cc(O)cc(O)c12 [compound 17] | – | – | –
9.30 | 6.70 | Cc1cc(O)cc2occ(-c3ccc(O)cc3)c(=O)c12 [compound 23] | – | – | –
8.48 | < 5.52 | O=c1c(-c2ccc(O)c(F)c2)coc2cc(O)ccc12 [compound 24] | – | – | –
8.43 | 6.00 | O=C1c2c(O)cc(O)cc2OCC1c1ccc(O)cc1 (stereo not drawn) [compound 26] | – | – | –
9.48 | 7.06 | O=c1cc(-c2ccc(O)cc2)oc2ccc(O)cc12 [compound 36] | – | – | –
9.14 | 7.12 | O=C1CC(c2ccc(O)cc2)Cc2ccc(O)cc21 (stereo not drawn) [compound 37] | – | – | –
8.70 | 6.81 | Oc1ccc(C2COc3cc(O)ccc3C2)cc1 (stereo not drawn) [compound 46] | – | – | –
